{"source": "patent US10772327B2", "about": "“Herbicide composition containing isopropylamine caprylate” (HUNAN AGRICULTURAL BIOTECHNOLOGY RESEARCH INSTITUTE, priority 2018, dated 2020)", "assay_in_all_cases": "Indoor test for herbicidal activity, stem and leaf spray on potted weeds", "conditions_in_all_cases": "Day 7, fresh weight of above-ground portion", "key": {"Ludwigia prostrata": {"test_system": "Ludwigia prostrata"}, "Echinochloa crusgalli": {"test_system": "Echinochloa crusgalli"}, "Poa annua": {"test_system": "Poa annua", "format": "in vivo"}, "Conyza candesis": {"test_system": "Conyza candesis", "format": "in vivo"}, "Xanthium sibiricum": {"test_system": "Xanthium sibiricum", "format": "in vivo"}, "Myosoton aquaticum": {"test_system": "Myosoton aquaticum", "format": "in vivo"}, "Eleocharis yokoscensis": {"test_system": "Eleocharis yokoscensis", "format": "in vivo"}, "Beckmannia syzigachne": {"test_system": "Beckmannia syzigachne", "format": "in vivo"}, "Veronica persica": {"test_system": "Veronica persica", "format": "in vivo"}, "Cardamine hirsuta": {"test_system": "Cardamine hirsuta", "format": "in vivo"}, "Stellaria media": {"test_system": "Stellaria media", "format": "in vivo"}, "[1]": {"conditions": "listed as glyphosate isopropylamine"}, "[2]": {"conditions": "listed as glyphosate isopropylamine salt"}, "[3]": {"conditions": "listed as isopropylamine caprylate"}}, "data": [{"molecule": "CCCCCCCC(=O)O", "note": "[Caprylic acid]", "values": [{"measurement": "ED50 (95% confidence interval of ED50)", "setting": "Ludwigia prostrata", "result": "12.52 (10.66-14.43) mg/mL"}, {"measurement": "ED90 (95% confidence interval of ED90)", "setting": "Ludwigia prostrata", "result": "96.04 (85.15-108.33) mg/mL"}, {"measurement": "ED50 (95% confidence interval of ED50)", "setting": "Ludwigia prostrata; listed as caprylic acid", "result": 12.52, "unit": "mg/mL"}, {"measurement": "ED50 (95% confidence interval of ED50)", "setting": "Echinochloa crusgalli", "result": "14.07 (13.66-14.48) mg/mL"}, {"measurement": "ED90 (95% confidence interval of ED90)", "setting": "Echinochloa crusgalli", "result": "108.65 (92.83-124.80) mg/mL"}, {"measurement": "ED50 (95% confidence interval of ED50)", "setting": "Echinochloa crusgalli; listed as caprylic acid", "result": 14.07, "unit": "mg/mL"}]}, {"molecule": "CC(C)N.O=C(O)CNCP(=O)(O)O", "note": "[Glyphosate isopropylamine]", "values": [{"measurement": "ED50 (95% confidence interval of ED50)", "setting": "Ludwigia prostrata", "result": "46.79 (41.87-52.27) mg/mL"}, {"measurement": "ED90 (95% confidence interval of ED90)", "setting": "Ludwigia prostrata", "result": "321.75 (271.72-380.99) mg/mL"}, {"measurement": "ED50 (95% confidence interval of ED50)", "setting": "Ludwigia prostrata; [1]", "result": 46.79, "unit": "mg/mL"}, {"measurement": "ED50 (95% confidence interval of ED50)", "setting": "Ludwigia prostrata; [2]", "result": 46.79, "unit": "mg/mL"}, {"measurement": "ED50 (95% confidence interval of ED50)", "setting": "Echinochloa crusgalli", "result": "52.18 (40.13-65.02) mg/mL"}, {"measurement": "ED90 (95% confidence interval of ED90)", "setting": "Echinochloa crusgalli", "result": "384.59 (360.35-420.77) mg/mL"}, {"measurement": "ED50 (95% confidence interval of ED50)", "setting": "Echinochloa crusgalli; [1]", "result": 52.18, "unit": "mg/mL"}, {"measurement": "ED50 (95% confidence interval of ED50)", "setting": "Echinochloa crusgalli; [2]", "result": 52.18, "unit": "mg/mL"}]}, {"molecule": "CCCCCCCC(=O)O", "note": "[Isopropylamine caprylate, isopropylamine caprylate]", "values": [{"measurement": "ED50 (95% confidence interval of ED50)", "setting": "Ludwigia prostrata", "result": "0.52 (0.35-0.61) mg/mL"}, {"measurement": "ED90 (95% confidence interval of ED90)", "setting": "Ludwigia prostrata", "result": "13.21 (9.17-18.31) mg/mL"}, {"measurement": "ED50 (95% confidence interval of ED50)", "setting": "Ludwigia prostrata; [3]", "result": 0.52, "unit": "mg/mL"}, {"measurement": "ED50 (95% confidence interval of ED50)", "setting": "Poa annua", "result": "3.07 (2.66-10.48) mg/mL"}, {"measurement": "ED90 (95% confidence interval of ED90)", "setting": "Poa annua", "result": "28.65 (22.83-40.82) mg/mL"}, {"measurement": "ED50 (95% confidence interval of ED50)", "setting": "Conyza candesis", "result": "0.74 (0.25-1.05) mg/mL"}, {"measurement": "ED90 (95% confidence interval of ED90)", "setting": "Conyza candesis", "result": "15.54 (8.74-20.93) mg/mL"}, {"measurement": "ED50 (95% confidence interval of ED50)", "setting": "Xanthium sibiricum", "result": "0.64 (0.22-1.03) mg/mL"}, {"measurement": "ED90 (95% confidence interval of ED90)", "setting": "Xanthium sibiricum", "result": "19.11 (10.80-31.14) mg/mL"}, {"measurement": "ED50 (95% confidence interval of ED50)", "setting": "Myosoton aquaticum", "result": "0.18 (0.04-0.25) mg/mL"}, {"measurement": "ED90 (95% confidence interval of ED90)", "setting": "Myosoton aquaticum", "result": "16.47 (8.35-20.23) mg/mL"}, {"measurement": "ED50 (95% confidence interval of ED50)", "setting": "Eleocharis yokoscensis", "result": "3.23 (2.00-9.55) mg/mL"}, {"measurement": "ED90 (95% confidence interval of ED90)", "setting": "Eleocharis yokoscensis", "result": "24.11 (18.74-40.82) mg/mL"}, {"measurement": "ED50 (95% confidence interval of ED50)", "setting": "Beckmannia syzigachne", "result": "3.07 (1.66-8.48) mg/mL"}, {"measurement": "ED90 (95% confidence interval of ED90)", "setting": "Beckmannia syzigachne", "result": "30.65 (24.12-44.50) mg/mL"}, {"measurement": "ED50 (95% confidence interval of ED50)", "setting": "Veronica persica", "result": "0.78 (0.28-2.35) mg/mL"}, {"measurement": "ED90 (95% confidence interval of ED90)", "setting": "Veronica persica", "result": "9.16 (5.09-22.65) mg/mL"}, {"measurement": "ED50 (95% confidence interval of ED50)", "setting": "Cardamine hirsuta", "result": "0.90 (0.11-2.46) mg/mL"}, {"measurement": "ED90 (95% confidence interval of ED90)", "setting": "Cardamine hirsuta", "result": "18.36 (10.74-35.88) mg/mL"}, {"measurement": "ED50 (95% confidence interval of ED50)", "setting": "Echinochloa crusgalli", "result": "4.07 (2.66-10.48) mg/mL"}, {"measurement": "ED90 (95% confidence interval of ED90)", "setting": "Echinochloa crusgalli", "result": "28.65 (22.83-40.82) mg/mL"}, {"measurement": "ED50 (95% confidence interval of ED50)", "setting": "Echinochloa crusgalli; [3]", "result": 4.07, "unit": "mg/mL"}, {"measurement": "ED50 (95% confidence interval of ED50)", "setting": "Stellaria media", "result": "0.80 (0.47-1.77) mg/mL"}, {"measurement": "ED90 (95% confidence interval of ED90)", "setting": "Stellaria media", "result": "16.69 (7.91-26.98) mg/mL"}]}]}
